From ChEMBL document CHEMBL1201862, “PubChem BioAssay data set” (2004)
Calls of active or inactive are those of the source.

Assays:
Protein RecA = biological target: T1, Protein RecA (Mycobacterium tuberculosis, UniProt P9WHJ3); assay: Fluorescence Cell-Free Homogeneous Dose Retest to Identify Inhibitors of RecA-Intein Splicing Activity. [Related pubchem assays (depositor defined):AID2097, AID2223, AID489010, AID492950]; format: functional
T1 sequence (P9WHJ3 whole entry): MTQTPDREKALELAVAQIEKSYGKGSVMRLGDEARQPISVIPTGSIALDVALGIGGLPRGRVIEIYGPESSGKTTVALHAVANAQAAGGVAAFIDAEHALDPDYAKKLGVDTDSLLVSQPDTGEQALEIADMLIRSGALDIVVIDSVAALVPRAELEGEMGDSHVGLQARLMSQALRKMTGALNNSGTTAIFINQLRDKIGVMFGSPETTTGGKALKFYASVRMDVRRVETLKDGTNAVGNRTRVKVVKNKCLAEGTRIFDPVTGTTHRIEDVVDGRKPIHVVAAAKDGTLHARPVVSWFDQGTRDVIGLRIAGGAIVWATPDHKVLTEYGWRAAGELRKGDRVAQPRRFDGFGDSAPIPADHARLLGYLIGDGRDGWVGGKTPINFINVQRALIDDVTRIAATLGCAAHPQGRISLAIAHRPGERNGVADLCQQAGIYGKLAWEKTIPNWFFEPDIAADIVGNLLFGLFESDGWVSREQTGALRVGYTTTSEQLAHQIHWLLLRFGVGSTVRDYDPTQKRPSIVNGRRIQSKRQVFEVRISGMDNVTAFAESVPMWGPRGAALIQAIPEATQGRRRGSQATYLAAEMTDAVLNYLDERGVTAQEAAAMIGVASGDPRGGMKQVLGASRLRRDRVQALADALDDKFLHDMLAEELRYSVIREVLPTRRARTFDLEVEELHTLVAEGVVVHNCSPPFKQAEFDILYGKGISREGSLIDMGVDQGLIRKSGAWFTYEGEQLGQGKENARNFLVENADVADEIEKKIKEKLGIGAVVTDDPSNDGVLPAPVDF

Fatty acid synthase [1] = biological target: T2, Fatty acid synthase (Homo sapiens, UniProt P49327); assay: inhibition of human FAS-TE enzyme activity – biochemical, kinetic fluorescence intensity, dose response (AID 624326); format: functional;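 also: rate of fluorescence rise from hydrolysis of a fluorogenic O-methyl fluorescein ester substrate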
T2 sequence (P49327 whole entry): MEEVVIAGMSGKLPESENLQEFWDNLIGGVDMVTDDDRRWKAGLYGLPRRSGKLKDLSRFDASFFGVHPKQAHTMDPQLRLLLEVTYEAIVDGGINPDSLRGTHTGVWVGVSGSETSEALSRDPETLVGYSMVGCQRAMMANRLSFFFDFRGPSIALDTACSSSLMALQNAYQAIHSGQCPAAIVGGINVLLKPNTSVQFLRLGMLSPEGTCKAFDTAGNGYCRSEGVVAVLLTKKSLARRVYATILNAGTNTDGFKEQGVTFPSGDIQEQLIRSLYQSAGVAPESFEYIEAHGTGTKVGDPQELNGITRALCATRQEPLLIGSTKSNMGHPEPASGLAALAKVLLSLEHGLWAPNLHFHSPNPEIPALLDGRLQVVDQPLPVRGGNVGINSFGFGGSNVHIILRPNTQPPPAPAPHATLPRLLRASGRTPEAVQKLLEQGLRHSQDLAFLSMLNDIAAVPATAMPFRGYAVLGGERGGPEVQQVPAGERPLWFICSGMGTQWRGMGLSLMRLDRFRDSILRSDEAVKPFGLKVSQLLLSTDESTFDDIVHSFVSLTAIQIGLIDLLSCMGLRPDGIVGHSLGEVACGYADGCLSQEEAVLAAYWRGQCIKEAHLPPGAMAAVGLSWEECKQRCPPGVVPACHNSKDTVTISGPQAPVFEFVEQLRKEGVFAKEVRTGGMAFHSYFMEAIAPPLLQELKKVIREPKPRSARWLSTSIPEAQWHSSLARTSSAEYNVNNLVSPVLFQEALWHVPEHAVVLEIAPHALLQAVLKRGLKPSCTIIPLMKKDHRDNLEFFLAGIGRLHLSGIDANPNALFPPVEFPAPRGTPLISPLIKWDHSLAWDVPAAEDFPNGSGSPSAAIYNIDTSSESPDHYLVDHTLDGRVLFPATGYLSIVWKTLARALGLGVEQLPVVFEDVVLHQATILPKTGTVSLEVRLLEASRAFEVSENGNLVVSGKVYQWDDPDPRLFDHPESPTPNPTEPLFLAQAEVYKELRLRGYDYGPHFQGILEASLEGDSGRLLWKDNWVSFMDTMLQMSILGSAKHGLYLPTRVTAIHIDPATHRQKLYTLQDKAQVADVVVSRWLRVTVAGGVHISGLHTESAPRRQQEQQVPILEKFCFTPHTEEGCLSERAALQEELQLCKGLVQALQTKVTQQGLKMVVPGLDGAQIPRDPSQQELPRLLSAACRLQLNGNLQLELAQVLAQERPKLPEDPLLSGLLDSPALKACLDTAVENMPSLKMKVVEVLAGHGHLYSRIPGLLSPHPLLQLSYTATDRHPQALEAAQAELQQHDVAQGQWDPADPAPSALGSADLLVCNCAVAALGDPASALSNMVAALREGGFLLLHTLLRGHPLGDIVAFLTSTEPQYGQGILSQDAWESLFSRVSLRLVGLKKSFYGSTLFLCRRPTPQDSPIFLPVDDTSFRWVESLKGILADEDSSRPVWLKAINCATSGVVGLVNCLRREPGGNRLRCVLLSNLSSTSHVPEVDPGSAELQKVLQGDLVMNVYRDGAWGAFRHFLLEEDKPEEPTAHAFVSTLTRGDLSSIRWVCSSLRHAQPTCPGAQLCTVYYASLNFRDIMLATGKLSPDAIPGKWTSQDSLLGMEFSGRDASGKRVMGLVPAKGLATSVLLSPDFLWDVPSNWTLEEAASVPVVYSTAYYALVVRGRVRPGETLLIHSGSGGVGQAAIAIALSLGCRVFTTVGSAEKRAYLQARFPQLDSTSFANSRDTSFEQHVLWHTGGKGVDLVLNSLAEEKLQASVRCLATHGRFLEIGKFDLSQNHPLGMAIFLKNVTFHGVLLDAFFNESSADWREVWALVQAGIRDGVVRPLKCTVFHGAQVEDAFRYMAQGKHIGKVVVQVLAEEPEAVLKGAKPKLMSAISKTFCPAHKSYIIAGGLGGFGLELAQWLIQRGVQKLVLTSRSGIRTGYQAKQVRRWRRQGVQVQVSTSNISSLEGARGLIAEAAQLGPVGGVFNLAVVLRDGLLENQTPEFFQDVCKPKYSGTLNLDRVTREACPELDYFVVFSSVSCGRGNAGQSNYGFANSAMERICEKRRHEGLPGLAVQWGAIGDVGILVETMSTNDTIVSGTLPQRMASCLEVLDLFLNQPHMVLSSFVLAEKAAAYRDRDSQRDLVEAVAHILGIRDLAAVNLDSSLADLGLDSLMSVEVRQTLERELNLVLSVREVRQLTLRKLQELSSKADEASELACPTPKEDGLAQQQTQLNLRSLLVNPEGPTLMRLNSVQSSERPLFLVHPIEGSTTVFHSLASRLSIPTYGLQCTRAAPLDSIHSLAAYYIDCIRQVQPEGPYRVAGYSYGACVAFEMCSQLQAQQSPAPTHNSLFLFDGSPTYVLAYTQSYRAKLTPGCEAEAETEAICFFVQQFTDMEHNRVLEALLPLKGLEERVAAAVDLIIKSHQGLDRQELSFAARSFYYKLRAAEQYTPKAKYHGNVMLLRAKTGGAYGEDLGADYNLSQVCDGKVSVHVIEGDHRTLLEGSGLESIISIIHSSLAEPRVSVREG

Fatty acid synthase [2] = biological target: T2, Fatty acid synthase; assay: inhibition of human FAS-TE enzyme activity – biochemical, endpoint fluorescence intensity, uHTS hits, dose response (AID 624327); format: functional;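 also: fluorescence from hydrolysis of an O-methyl fluorescein acyl ester substrate by the enzyme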
[3] = biological target: T3, Replicative DNA helicase DnaB (Mycobacterium tuberculosis, UniProt P9WMR3); assay: DnaB intein splicing inhibitors, dose response, biochemical, cell-free fluorescence (AID 449749); format: functional
T3 sequence (P9WMR3 whole entry): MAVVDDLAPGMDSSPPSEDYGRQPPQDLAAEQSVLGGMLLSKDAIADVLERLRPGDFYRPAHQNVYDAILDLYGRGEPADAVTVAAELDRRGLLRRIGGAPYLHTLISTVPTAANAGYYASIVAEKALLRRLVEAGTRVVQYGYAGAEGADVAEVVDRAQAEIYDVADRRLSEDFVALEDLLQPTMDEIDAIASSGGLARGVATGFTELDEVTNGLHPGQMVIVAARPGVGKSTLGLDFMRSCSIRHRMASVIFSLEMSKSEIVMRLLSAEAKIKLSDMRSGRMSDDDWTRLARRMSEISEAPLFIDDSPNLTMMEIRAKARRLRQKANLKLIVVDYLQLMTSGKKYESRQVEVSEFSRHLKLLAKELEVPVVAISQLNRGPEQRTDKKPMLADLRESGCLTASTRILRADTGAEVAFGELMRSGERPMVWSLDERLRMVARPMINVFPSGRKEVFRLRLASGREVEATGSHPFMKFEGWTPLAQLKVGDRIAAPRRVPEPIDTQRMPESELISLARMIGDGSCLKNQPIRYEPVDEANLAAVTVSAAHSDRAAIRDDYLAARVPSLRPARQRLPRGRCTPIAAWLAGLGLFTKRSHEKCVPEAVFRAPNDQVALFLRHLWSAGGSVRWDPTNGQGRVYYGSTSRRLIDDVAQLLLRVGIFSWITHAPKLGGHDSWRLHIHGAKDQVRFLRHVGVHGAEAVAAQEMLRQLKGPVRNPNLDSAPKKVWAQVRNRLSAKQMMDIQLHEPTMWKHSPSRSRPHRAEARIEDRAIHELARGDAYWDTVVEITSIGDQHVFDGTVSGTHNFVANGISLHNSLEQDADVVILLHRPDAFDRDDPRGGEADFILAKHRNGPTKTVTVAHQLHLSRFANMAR

[4] = biological target: G-protein coupled receptor 55 (Homo sapiens, UniProt Q9Y2T6); assay: inhibition of LPI-stimulated GPR55 beta-arrestin translocation – imaging, U2OS, beta-arrestin-GFP, LPI agonist, primary screen (AID 2013); format: functional;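 also: antagonist potency measured as reduced agonist-driven arrestin aggregation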
G-protein coupled receptor 55, sequence (Q9Y2T6 whole entry): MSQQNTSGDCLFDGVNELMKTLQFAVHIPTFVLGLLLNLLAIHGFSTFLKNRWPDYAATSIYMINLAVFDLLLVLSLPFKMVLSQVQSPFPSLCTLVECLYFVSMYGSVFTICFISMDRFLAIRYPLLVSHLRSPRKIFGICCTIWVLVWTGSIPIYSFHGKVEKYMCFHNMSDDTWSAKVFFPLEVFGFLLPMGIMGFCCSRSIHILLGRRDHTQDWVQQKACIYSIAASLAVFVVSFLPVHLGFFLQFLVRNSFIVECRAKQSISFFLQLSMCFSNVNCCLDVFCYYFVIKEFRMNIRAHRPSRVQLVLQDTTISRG

Exodeoxyribonuclease V = biological target: T4, Exodeoxyribonuclease V (Escherichia coli (strain K12), UniProt P04993+P07648+P08394); assay: RecBCD inhibition via phage-restricted bacterial growth – absorbance, V66 E. coli, mutant T4 phage, counter-screen for AddAB inhibitor project, dose response (AID 492957); format: functional, cell-based, Escherichia coli str. K-12 substr. MG1655
T4 sequence (P04993 whole entry): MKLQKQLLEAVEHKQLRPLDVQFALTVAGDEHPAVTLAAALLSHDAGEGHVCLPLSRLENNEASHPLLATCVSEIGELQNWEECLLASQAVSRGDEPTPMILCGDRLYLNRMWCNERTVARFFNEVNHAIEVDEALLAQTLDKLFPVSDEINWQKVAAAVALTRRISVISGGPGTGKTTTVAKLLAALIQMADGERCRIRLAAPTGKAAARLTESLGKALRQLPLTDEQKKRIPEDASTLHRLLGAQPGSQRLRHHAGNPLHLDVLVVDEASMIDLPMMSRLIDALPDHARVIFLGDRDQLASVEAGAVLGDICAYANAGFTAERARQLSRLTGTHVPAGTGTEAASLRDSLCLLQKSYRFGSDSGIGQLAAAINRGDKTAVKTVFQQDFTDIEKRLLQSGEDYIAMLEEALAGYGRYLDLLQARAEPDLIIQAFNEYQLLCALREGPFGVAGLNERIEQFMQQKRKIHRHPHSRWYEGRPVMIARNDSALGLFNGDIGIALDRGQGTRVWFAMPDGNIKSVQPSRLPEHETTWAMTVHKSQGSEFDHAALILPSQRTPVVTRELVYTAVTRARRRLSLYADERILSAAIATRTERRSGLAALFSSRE
T4 sequence (P07648 whole entry): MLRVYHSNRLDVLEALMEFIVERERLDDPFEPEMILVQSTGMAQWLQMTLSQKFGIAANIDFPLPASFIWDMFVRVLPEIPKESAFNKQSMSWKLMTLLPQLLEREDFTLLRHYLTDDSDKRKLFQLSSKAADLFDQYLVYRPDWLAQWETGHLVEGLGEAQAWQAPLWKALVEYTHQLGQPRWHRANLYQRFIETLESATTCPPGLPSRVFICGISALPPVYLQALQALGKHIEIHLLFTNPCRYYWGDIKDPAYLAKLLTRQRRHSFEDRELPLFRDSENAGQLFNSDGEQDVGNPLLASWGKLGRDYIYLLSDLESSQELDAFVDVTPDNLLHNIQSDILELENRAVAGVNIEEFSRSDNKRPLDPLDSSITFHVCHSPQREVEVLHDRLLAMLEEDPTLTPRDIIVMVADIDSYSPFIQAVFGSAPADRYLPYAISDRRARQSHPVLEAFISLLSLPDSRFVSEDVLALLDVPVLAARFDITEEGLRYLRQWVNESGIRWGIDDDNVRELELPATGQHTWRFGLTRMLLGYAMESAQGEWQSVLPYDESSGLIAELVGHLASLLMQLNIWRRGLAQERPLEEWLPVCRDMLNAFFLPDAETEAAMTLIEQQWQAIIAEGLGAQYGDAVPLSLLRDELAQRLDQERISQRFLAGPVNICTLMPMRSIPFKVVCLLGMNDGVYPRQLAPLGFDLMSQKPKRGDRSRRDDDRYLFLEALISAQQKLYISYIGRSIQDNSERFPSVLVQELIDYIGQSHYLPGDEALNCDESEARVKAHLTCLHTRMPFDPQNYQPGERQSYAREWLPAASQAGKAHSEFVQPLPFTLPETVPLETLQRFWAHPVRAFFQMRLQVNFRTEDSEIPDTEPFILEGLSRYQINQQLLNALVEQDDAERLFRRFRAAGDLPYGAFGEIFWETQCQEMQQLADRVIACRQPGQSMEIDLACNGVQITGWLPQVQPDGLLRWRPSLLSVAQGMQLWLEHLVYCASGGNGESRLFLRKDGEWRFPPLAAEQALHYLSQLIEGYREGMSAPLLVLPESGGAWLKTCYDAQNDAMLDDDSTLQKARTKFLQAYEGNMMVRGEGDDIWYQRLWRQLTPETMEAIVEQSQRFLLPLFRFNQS
T4 sequence (P08394 whole entry): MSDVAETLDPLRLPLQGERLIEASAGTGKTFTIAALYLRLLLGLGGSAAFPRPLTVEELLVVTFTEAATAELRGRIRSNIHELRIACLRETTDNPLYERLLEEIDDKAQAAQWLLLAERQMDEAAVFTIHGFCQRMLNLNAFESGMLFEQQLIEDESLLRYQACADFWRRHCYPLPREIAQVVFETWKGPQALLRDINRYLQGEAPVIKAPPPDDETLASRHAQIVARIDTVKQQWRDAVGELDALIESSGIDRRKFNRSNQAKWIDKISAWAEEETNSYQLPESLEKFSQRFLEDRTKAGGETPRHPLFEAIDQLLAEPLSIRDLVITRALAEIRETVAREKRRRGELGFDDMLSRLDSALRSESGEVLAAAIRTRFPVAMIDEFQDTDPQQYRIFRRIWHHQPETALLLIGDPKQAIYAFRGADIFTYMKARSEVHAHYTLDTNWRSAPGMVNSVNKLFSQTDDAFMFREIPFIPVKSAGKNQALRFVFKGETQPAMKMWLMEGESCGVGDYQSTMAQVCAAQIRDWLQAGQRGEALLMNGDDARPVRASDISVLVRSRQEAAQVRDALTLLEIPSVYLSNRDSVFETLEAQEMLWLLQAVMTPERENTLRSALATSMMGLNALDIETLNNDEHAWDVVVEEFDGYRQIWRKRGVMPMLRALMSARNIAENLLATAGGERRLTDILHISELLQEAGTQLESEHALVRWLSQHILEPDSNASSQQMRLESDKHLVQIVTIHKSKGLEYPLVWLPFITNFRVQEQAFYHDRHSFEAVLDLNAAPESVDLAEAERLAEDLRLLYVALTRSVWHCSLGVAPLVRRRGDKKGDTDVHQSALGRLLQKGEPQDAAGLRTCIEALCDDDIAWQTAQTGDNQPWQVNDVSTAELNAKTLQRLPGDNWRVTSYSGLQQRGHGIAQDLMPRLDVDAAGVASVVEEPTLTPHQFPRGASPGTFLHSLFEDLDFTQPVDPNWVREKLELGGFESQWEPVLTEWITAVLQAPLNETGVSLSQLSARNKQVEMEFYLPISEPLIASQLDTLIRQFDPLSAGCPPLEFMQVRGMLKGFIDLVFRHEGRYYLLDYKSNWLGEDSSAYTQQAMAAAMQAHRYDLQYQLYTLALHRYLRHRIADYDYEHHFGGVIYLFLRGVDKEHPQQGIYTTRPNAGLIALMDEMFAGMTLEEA

[5] = Counterscreen for AddAB inhibitors: absorbance-based bacterial cell-based high throughput dose response assay for inhibitors of bacterial viability. [Related pubchem assays (depositor defined):AID435030, AID449728, AID449731, AID488942, AID488955, AID488956]; format: functional
[6] = biological target: T5, Alkaline phosphatase, tissue-nonspecific isozyme (Homo sapiens, UniProt P05186); assay: potency against alkaline phosphatase TNAP – biochemical, luminescent, dose response, SAR follow-up (AID 1056)
T5 sequence (P05186 whole entry): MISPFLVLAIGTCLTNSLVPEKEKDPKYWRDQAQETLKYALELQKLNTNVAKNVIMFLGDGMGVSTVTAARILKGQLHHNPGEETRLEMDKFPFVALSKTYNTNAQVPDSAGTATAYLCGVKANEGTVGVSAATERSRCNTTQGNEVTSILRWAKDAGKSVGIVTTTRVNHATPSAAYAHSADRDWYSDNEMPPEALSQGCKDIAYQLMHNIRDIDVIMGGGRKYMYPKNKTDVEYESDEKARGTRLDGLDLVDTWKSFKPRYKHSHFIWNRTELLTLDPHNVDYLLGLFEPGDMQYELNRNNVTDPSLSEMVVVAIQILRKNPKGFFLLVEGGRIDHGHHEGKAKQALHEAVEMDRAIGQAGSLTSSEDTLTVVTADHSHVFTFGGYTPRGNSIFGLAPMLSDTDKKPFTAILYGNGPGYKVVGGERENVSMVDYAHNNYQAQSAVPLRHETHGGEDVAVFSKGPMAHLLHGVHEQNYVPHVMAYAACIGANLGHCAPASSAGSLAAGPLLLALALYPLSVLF

O=C(Nc1ccc(Cl)cc1)C(Cl)C(=O)c1ccccc1 (stereo not drawn)
EC50 (Protein RecA): 30.3 µM (active)
IC50 (Fatty acid synthase [1]): 4.67 µM (active)
IC50 (Fatty acid synthase [2]): 4.3 µM (active)
AC50 [3]: 5.89 µM (active)
IC50 [4]: 1.07 µM (active)

COc1ccc(-c2cc(N3CCCC3)n3ncnc3n2)cc1
IC50 (Exodeoxyribonuclease V): > 119 µM (inactive)
IC50 [5]: > 119 µM (inactive)

O=C(O)c1[nH]nc2c1COc1ccccc1-2
IC50 [6]: 1.31 µM (active)
